Test results from PubChem BioAssay (NCI).
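Results reflect a 48-hour exposure of cells in 96-well plates to compound at five concentrations. TGI is the concentration that stops growth completely.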

Columns and labels:
Assay in all cases: DTP human tumour cell line panel, 48 h
RPMI-8226 leukemia = tested on: RPMI-8226 leukemia
M14 melanoma = tested on: M14 melanoma
HCC-2998 colon = tested on: HCC-2998 colon
HOP-62 NSCLC = tested on: HOP-62 NSCLC
SNB-19 CNS = tested on: SNB-19 CNS
SF-295 CNS = tested on: SF-295 CNS
NCI/ADR-RES ovarian = tested on: NCI/ADR-RES ovarian
NCI-H522 lung = tested on: NCI-H522 lung
CCRF-CEM leukemia = tested on: CCRF-CEM leukemia
A549 NSCLC = tested on: A549 NSCLC

Measured: TGI

CCN(CC)CCN(C(=Nc1ccccc1)N1CCOCC1)c1ccccc1
> 100 µM: all assays above
